Source: patent US20250188110A1, “SPECIFIC SMALL MOLECULE INHIBITORS THAT BLOCK KMT9 METHYLTRANSFERASE ACTIVITY AND FUNCTION” (ALBERT-LUDWIGS-UNIVERSITÄT FREIBURG, priority 2021, published 2025)
pIC50, pKd: −log10 of the molar value.

Legend:
[1] = molecular target: T1, KMT9 (Homo sapiens, UniProt Q9Y5N5); assay: Microscale thermophoresis (MST) KMT9 binding; conditions: microscale thermophoresis, His-tag labelled KMT9 (20 nM); read-out: MST
T1 sequence (Q9Y5N5 1-214): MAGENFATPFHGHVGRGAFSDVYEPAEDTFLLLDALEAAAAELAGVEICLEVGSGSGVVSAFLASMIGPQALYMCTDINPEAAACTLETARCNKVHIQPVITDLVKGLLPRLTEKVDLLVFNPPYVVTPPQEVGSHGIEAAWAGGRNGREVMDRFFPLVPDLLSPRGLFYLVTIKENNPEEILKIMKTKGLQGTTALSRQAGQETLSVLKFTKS
T1 sequence (Q9UI30 1-120 isoform Q9UI30-2 partner): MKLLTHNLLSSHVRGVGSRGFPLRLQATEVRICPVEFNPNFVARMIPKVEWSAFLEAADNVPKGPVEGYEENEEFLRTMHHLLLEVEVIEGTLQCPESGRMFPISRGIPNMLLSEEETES
How it was run: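 Kd from microscale thermophoresis: compound series against 20 nM His-KMT9 labelled via RED-Tris-NTA, buffer 25 mM HEPES (pH 7.5)/100 mM NaCl/1 mM DTT/0.05% Tween, 40% MST power, 100% LED. Reported as classes: A ≤10 nM, B >10–100 nM, C >100–1000 nM, D >1000 nM.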

[2] = molecular target: T1, KMT9; assay: KMT9 thermal shift assay (SyproOrange); format: binding; conditions: ΔTm; 500 µM compound, 2 μM KMT9, 5X SO; read-out: Thermal shift
How it was run: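 ΔTm versus DMSO-only control is reported in bins (>20 K, 15–20 K, 10–15 K, ≤10 K), using Tm from Boltzmann sigmoidal fits of SyproOrange melt curves. KMT9 with compound in pH 8.5 BTP buffer containing MgCl2 and DTT was preincubated at 25° C, then ramped 1° C per 15 s up to 95° C.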

[3] = molecular target: T1, KMT9; assay: KMT9 methyltransferase inhibition assay, 3H-SAM scintillation (entries 1-154); format: biochemical; conditions: entries 1-154: 3H-SAM assay, 25 nM KMT9, 5 μM ETF1
How it was run: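 Tritium transfer from SAM (0.3 μM 3H-SAM, 0.7 μM unlabelled, final) to 5 μM ETF1 fragment by 25 nM KMT9 was measured after 2 h at 30° C, pH 8.5. Precipitated peptide was collected on filters and scintillation counted; IC50 came from a four-parameter fit of inhibition normalised to controls.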

Row | SMILES | pKd [1] | ΔTm at 500 µM [2] [°C] | pIC50 [3]
1 | Nc1ncnc2c1c(-c1ccn(Cc3ccccc3)n1)cn2[C@@H]1C[C@H](C2CCNCC2)[C@@H](O)[C@H]1O [Compound 489, (1R,2S,3R,5R)-3-(4-amino-5-(1-benzyl-1H-pyrazol-3-yl)-7H-pyrrolo[2,3-d]pyrimidin-7-yl)-5-(piperidin-4-yl)cyclopentane-1,2-diol] | 7.00 to 8.00 | 15 to 20 | 5.00 to 6.00
2 | Nc1ncnc2c1c(-c1nccs1)cn2[C@@H]1C[C@H](CN(CCCNCCc2ccc(F)cc2)c2cn[nH]c2)[C@@H](O)[C@H]1O [Compound 599, (1R,2S,3R,5R)-3-[4-Amino-5-(1,3-thiazol-2-yl)pyrrolo[2,3-d]pyrimidin-7-yl]-5-{[(3-{[2-(4-fluorophenyl)ethyl]amino}propyl)(1H-pyrazol-4-yl)amino]methyl}cyclopentane-1,2-diol] | ≥ 8.00 | 15 to 20 | > 7.00
3 | CNc1ncnc2c1ccn2[C@@H]1C[C@H](C(=O)NCCCNCc2ccc(Oc3ccc(Cl)cc3)c(F)c2)[C@@H](O)[C@H]1O [352 (256), (1S,2R,3S,4R)—N-(3-((4-(4-chlorophenoxy)-3-fluorobenzyl)amino)propyl)-2,3-dihydroxy-4-(4-(methylamino)-7H-pyrrolo[2.3-d]pyrimidin-7-yl)cyclopentane-1-carboxamide] | 6.00 to 7.00 | 10 to 15 | < 5.00
4 | C=Cc1cn([C@@H]2C[C@H](CNCCCNCCc3ccccc3)[C@@H](O)[C@H]2O)c2ncnc(N)c12 [464 (338), (1R,2S,3R,5R)-3-(4-amino-5-vinyl-7H-pyrrolo[2,3-d]pyrimidin-7-yl)-5-(((3-(phenethylamino)propyl)amino)methyl) cyclopentane-1,2-diol] | 7.00 to 8.00 | 10 to 15 | 5.00 to 6.00
5 | Nc1ncnc2c1c(-c1ccccc1)cn2[C@@H]1C[C@H](CNCCCNCCc2cccc(Oc3ccccc3)c2)[C@@H](O)[C@H]1O [461 (334), (1R,2S,3R,5R)-3-(4-Amino-5-phenyl-7H-pyrrolo[2,3-d]pyrimidin-7-yl)-5-(((3-((3-phenoxyphenethyl)amino)propyl)amino)methyl) cyclopentane-1,2-diol] | 6.00 to 7.00 | 15 to 20 | 6.00 to 7.00

The remaining lines, values ahead:

Row | pKd [1] | ΔTm at 500 µM [2] [°C] | pIC50 [3] | SMILES
6 | 6.00 to 7.00 | 10 to 15 | 5.00 to 6.00 | CNc1ncnc2c1ccn2[C@@H]1C[C@H](CNCCCNCCc2cccc(Sc3ccccc3)c2)[C@@H](O)[C@H]1O [372 (276), (1R,2S,3R,5R)-3-(4-(methylamino)-7H-pyrrolo[2,3-a]pyrimidin-7-yl)-5-(((3-((3-(phenylthio)phenethyl)amino)propyl)amino)methyl) cyclopentane-1,2-diol]
7 | < 6.00 | ≤ 10 | < 5.00 | CNc1ncnc2c1ccn2[C@@H]1C[C@H](C[S+]([O-])CCCNCCc2ccccc2)[C@@H](O)[C@H]1O (stereo partly drawn) [428 (300), (1R,2S,3R,5S)-3-(4-(Methylamino)-7H-pyrrolo[2,3-d]pyrimidin-7-yl)-5-(((3-(phenethylamino)propyl)sulfinyl)methyl) cyclopentane-1,2-diol]
8 | < 6.00 | ≤ 10 | 5.00 to 6.00 | CNc1ncnc2c1ccn2[C@@H]1C[C@H](CN(CCCNCCc2ccccc2)c2cncs2)[C@@H](O)[C@H]1O [439 (311), (1R,2S,3R,5R)-3-(4-(Methylamino)-7H-pyrrolo[2,3-d]pyrimidin-7-yl)-5-(((3-(phenethylamino)propyl)(thiazol-5-yl)amino)methyl) cyclopentane-1,2-diol]
9 | < 6.00 | 10 to 15 | 5.00 to 6.00 | CNc1ncnc2c1ccn2[C@@H]1C[C@H](CNCCCNCCc2ccccc2)[C@@H](O)[C@H]1O [291 (188), (1R,2S,3R,5R)-3-(4-(methylamino)-7H-pyrrolo[2,3-a]pyrimidin-7-yl)-5-(((3-(phenethylamino)propyl)amino)methyl) cyclopentane-1,2-diol]
